The results in this text go back to patent US9809602B2, “Compounds for treating viral infections” (INSTITUT PASTEUR KOREA, priority 2014, dated 2017).

The first test concerns genotype 1/2 chimeric cell culture derived HCV (HCVcc). Put plainly: Genotype 1/2 chimeric HCVcc assay (nano-luciferase, HCV replication). In kind it is cell-based. The conditions noted are these: Hepatitis C virus. On the procedure:
Naïve Huh-7.5 target cells were plated at 2400 cells/well in 25 μL of culture media in 384-well plates (Greiner bio-one, μ clear black). After overnight incubation, compounds serially diluted in 10 μL of cell culture media were added. After 2 h compound treatment, cells were inoculated with 40 μL of genotype 1/2 chimeric cell culture derived HCV (HCVcc) which express structural proteins of an HCV genotype 1a isolate (TN accession number EF621489) and non-structural proteins of HCV genotype 2a (JFH-1) with nano-luciferase reporter. At 72 h post infection, nano-luciferase activity (Nano-Glo™, Promega) and cellular ATP (Cell titer-Glo™, Promega) were measured as a marker for HCV replication and cytotoxicity, respectively. EC50 and CC50 were calculated by non-linear regression analyzing using GraphPad Prism (GraphPad Software).
The term EC50 denotes the midpoint of the concentration-response curve. Take `O=C(NCCCN1CCC(N2CCCCC2)CC1)c1ccc2oc3ccccc3c2c1` [Compound 1074]: the half-maximal effective concentration (EC50) is 1000 to 10000 nM.

As for `O=C(NCCCN1CCC(N2CCCCC2)CC1)c1cc2c(s1)CCCC2` [Compound 1002], the EC50 was more than 10000 nM. The same measure, in the same setting: for `O=C(NCCCN1CCC(N2CCCCC2)CC1)c1ccc(-c2ccc3occc3c2)cc1` [Compound 1126] the value was 100 to 1000 nM; for `NC(=O)c1ccc(-c2ccc(C(=O)NCCCN3CCC(N4CCCCC4)CC3)cc2)cc1` [Compound 1129], more than 10000 nM. On the same count and under the same terms, the same measure for `Cc1cc(NCCCN2CCC(N3CCCCC3)CC2)n2nc(-c3ccccc3)cc2n1` [Compound 1103]: 1000 to 10000 nM.

`O=C(NCCOCCN1CCC(N2CCCCC2)CC1)c1ccc(Oc2ccccc2)cc1` [Compound 1077] returned an EC50 of 1000 to 10000 nM. Same read-out and setting: for `COc1ccc(-c2ccc(C(=O)NCCCN3CCC(N4CCCCC4)CC3)cc2)cc1` [Compound 1022] the value was less than 100 nM; for `O=C(NCCCN1CCC(Oc2ccccc2)CC1)c1ccc(Oc2ccccc2)cc1` [Compound 1056], 1000 to 10000 nM; for `O=C(NCCCN1CCC(C2CCCCC2)CC1)c1ccc(Oc2ccccc2)cc1` [Compound 1071], 1000 to 10000 nM.

Regarding `O=S(=O)(NCCCN1CCC(N2CCCCC2)CC1)c1ccc(Oc2ccccc2)cc1` [Compound 1060], the EC50 was in the range of 100 to 1000 nM. Turning to `O=C(NCCCN1CCC(N2CCCCC2)CC1)c1ccc(-c2cccc(N3CCOCC3)c2)cc1` [Compound 1142], the EC50 lay within 1000 to 10000 nM. The same measure, in the same setting: for `O=C(NCCCN1CCC(N2CCCCC2)CC1)c1ccc(-c2ccc(CN3CCOCC3)cc2)cc1` [Compound 1138] the value was 1000 to 10000 nM. The same measure, in the same setting: for `O=C(NCCCN1CCC(N2CCCCC2)CC1)c1ccc(-c2ccccc2C(F)(F)F)cc1` [Compound 1028] the value was 100 to 1000 nM; for `O=C(NCCCN1CCC(N2CCCCC2)CC1)c1cc2ccccc2[nH]1` [Compound 1010], 1000 to 10000 nM; for `O=C(NCCCN1CCN(Cc2ccccc2)CC1)c1ccc(Oc2ccccc2)cc1` [Compound 1036], 1000 to 10000 nM. Still for that read-out and setting: for `O=C(NCCCN1CCC(N2CCOCC2)CC1)c1ccc(Oc2ccccc2)cc1` [Compound 1050] the value was 1000 to 10000 nM; for `O=C(NCCCN1CCC(N2CCCCC2)CC1)c1ccc(-c2ccc(N3CCOCC3)cc2)cc1` [Compound 1123], 100 to 1000 nM; for `c1ccc(Oc2ccc(CNCCCN3CCC(N4CCCCC4)CC3)cc2)cc1` [Compound 1046], 100 to 1000 nM. For `O=C(NCCCN1CCC(N2CCCCC2)CC1)c1ccc(-c2ccc([N+](=O)[O-])cc2)cc1` [Compound 1122], the EC50 was 100 to 1000 nM. Same read-out and setting: the same measure for `O=C(NCCCN1CCC(N2CCCCC2)CC1)c1ccc(-c2ccc(C(F)(F)F)cc2)nc1` [Compound 1080]: 100 to 1000 nM; for `O=C(NCCCN1CCC(c2ccccc2)CC1)c1ccc(Oc2ccccc2)cc1` [Compound 1041]: 1000 to 10000 nM. Same read-out and setting: the same measure for `O=C(NCCCN1CCN(C(=O)c2ccccc2)CC1)c1ccc(Oc2ccccc2)cc1` [Compound 1039]: more than 10000 nM; for `O=C(NCCCN1CCC(N2CCCCC2)CC1)c1ccc(-c2ccc(C(F)(F)F)cc2)cn1` [Compound 1102]: 100 to 1000 nM. Still for that read-out and setting: for `Cc1ccc(-c2ccc(C(=O)NCCCN3CCC(N4CCCCC4)CC3)cc2)cc1` [Compound 1016] the value was 100 to 1000 nM; for `COc1cc(C(=O)NCCCN2CCC(N3CCCCC3)CC2)ccc1-c1ccc(C(F)(F)F)cc1` [Compound 1115], 100 to 1000 nM.

The test is the same for the next values; noted with them: Hepatitis C virus, Huh7.5, 72 h.
Compound `CCOC(=O)c1c(NC(=O)NCc2ccc(CN(C)C)cc2Br)sc2c1CCCC2` [Compound 93] yielded an EC50 of 100 to 1000 nM. Same read-out and setting: the same measure for `O=C(NCc1c(-c2ccco2)sc2c1CCNC2)Nc1sc2c(c1C(=O)OC1CCOC1)CCCC2` (stereo not shown) [Compound 342]: less than 100 nM; for `CC(C)(C)OC(=O)c1c(NC(=O)NCc2c(-c3ccccc3C(F)(F)F)sc3c2CCNC3)sc2c1CCCC2` [Compound 161]: 100 to 1000 nM; for `CCOC(=O)c1c(NC(=O)NCc2c(N3CCCC3)sc3c2CCN(C(=O)OC(C)(C)C)C3)sc2c1CCCC2` [Compound 73]: less than 100 nM. Same read-out and setting: the same measure for `CC(C)(C)OC(=O)c1c(NC(=O)NCc2c(-c3ccncc3)sc3c2CCNC3)sc2c1CCCC2` [Compound 145]: less than 100 nM; for `CN1CCc2c(sc(Br)c2CNC(=O)Nc2sc3c(c2C(=O)OC(C)(C)C)CCC3)C1` [Compound 299]: less than 100 nM. For the compound `CC(C)(C)OC(=O)c1c(NC(=O)NCc2c(-n3cccc3)sc3c2CCN(CCO)C3)sc2c1CCCC2` [Compound 258], the EC50 was less than 100 nM. With `CCN1CCc2c(sc(-n3cccc3)c2CNC(=O)Nc2sc3c(c2C(=O)NCCCCNC(=O)OC(C)(C)C)CCCC3)C1` [Compound 90], the EC50 was 1000 to 10000 nM. Same read-out and setting: for `COC(=O)c1c(NC(=O)NCc2c(C(F)(F)F)sc3c2CC[N+](C)(C)C3)sc2c1CCCC2` [Compound 223] the value was 1000 to 10000 nM; for `CCOC(=O)c1c(NC(=O)NCc2c(N3CCOCC3)sc3c2CCNC3)sc2c1CCCC2` [Compound 54], 100 to 1000 nM; for `CCN1CCc2c(sc(-n3cccc3)c2CNC(=O)Nc2cccs2)C1` [Compound 15], more than 10000 nM. Same read-out and setting: for `CCN(C)Cc1sc(-n2cccc2)c(CNC(=O)Nc2sc3c(c2C(=O)OC(C)(C)C)CCCC3)c1C` [Compound 136] the value was less than 100 nM. Regarding `CC(C)(C)OC(=O)c1c(NC(=O)NCc2c(-n3cccc3)sc3c2CCN(C2COC2)C3)sc2c1CCCC2` [Compound 261], the concentration giving a half-maximal response (EC50) was less than 100 nM.

For the compound `CC(C)(C)OC(=O)c1c(NC(=O)NCc2c(-c3cccnc3)sc3c2CCNC3)sc2c1CCCC2` [Compound 123], the EC50 was less than 100 nM. Turning to `CC(C)(C)OC(=O)c1c(NC(=O)NCc2c(-c3ccc(C(=O)O)cc3F)sc3c2CCNC3)sc2c1CCCC2` [Compound 321], the EC50 lay within 1000 to 10000 nM. Compound `COC(=O)c1c(NC(=O)NCc2c(-n3cccc3)sc3c2CCNC3)sc2c1CCCC2` [Compound 142] gave an EC50 of 100 to 1000 nM. On the same count and under the same terms, the same measure for `CCOC(=O)c1c(NC(=O)NCc2ccc(CN(C)C)cc2)sc2c1CCCC2` [Compound 29]: 100 to 1000 nM; for `CCOC(=O)c1c(NC(=O)NCc2c(-n3cccc3)sc3c2CCN(CC)C3)sc2ccccc12` [Compound 34]: 100 to 1000 nM. On the same count and under the same terms, for `O=C(NCc1c(-n2cccc2)sc2c1CCNC2)Nc1sc2c(c1C(=O)OC1CCCC1)CCCC2` [Compound 220] the value was less than 100 nM.

In the case of `CCOC(=O)c1c(NC(=O)NCc2c(-n3cccc3)sc3c2CCN(CC)C3)sc2c1CC(C)CC2C` (stereo not shown) [Compound 205], the EC50 was less than 100 nM. On to `N#Cc1c(NC(=O)NCc2c(-n3cccc3)sc3c2CCCC3)sc2c1CCCC2` [Compound 6], for which the EC50 lay within 1000 to 10000 nM. Still for that read-out and setting: for `O=C(NCc1c(-n2cccc2)sc2c1CCNC2)Nc1sc2c(c1C(=O)NCc1ccccc1)CCCC2` [Compound 82] the value was 100 to 1000 nM; for `CCN1CCc2c(sc(-n3cccc3)c2CNC(=O)Nc2sc3c(c2C(=O)NCCOCCOCCN)CCCC3)C1` [Compound 89], 1000 to 10000 nM. On the same count and under the same terms, the same measure for `COC(=O)c1c(NC(=O)NCc2c(Br)sc3c2CCNC3)sc2c1CCCC2` [Compound 128]: less than 100 nM. `Cc1nnc(-c2c(NC(=O)NCc3c(-n4cccc4)sc4c3CCNC4)sc3c2CCCC3)o1` [Compound 60]: the EC50 fell in the range of 100 to 1000 nM. Same read-out and setting: for `CCN1CCc2c(sc(-n3cccc3)c2CNC(=O)Nc2sc3c(c2C(=O)NCC(C)C)CCCC3)C1` [Compound 80] the value was less than 100 nM; for `CCOC(=O)c1c(NC(=O)NCc2c(-c3ccccc3)sc3c2CCNC3)sc2c1CCCC2` [Compound 62], 100 to 1000 nM.

Compound `CC(C)(C)OC(=O)c1c(NC(=O)NCc2c(-n3cccc3)sc3c2CCN(C2CC2)C3)sc2c1CCCC2` [Compound 334] yielded an EC50 of less than 100 nM. Same read-out and setting: for `CCOC(=O)c1c(NC(=O)NCc2c(-c3ccoc3)sc3c2CCNC3)sc2c1CCCC2` [Compound 339] the value was less than 100 nM. `CCOC(=O)c1c(NC(=O)NCc2cccc(CN(C)C)c2)sc2c1CCCC2` [Compound 102] had an EC50 of 100 to 1000 nM. Same read-out and setting: the same measure for `Cc1nnc(-c2c(NC(=O)NCc3c(Br)sc4c3CCNC4)sc(C)c2C)o1` [Compound 162]: less than 100 nM; for `CC(C)(C)OC(=O)c1c(NC(=O)NCc2c(-c3cccc(F)c3)sc3c2CCNC3)sc2c1CCCC2` [Compound 160]: less than 100 nM; for `CCN1CCc2c(sc(-n3cccc3)c2CNC(=O)Nc2sc3c(c2C(=O)NCCCCNC(=O)CCCCCN)CCCC3)C1` [Compound 88]: 1000 to 10000 nM. The same measure, in the same setting: for `CCOC(=O)c1c(NC(=O)NCc2c(-n3cccc3)sc3c2CCNC3)sc2c1CCNC2` [Compound 64] the value was 1000 to 10000 nM; for `CCOC(=O)c1c(NC(=O)NCc2c(-n3cccc3)sc(CN3CCOCC3)c2C)sc2c1CCCC2` [Compound 53], less than 100 nM.

Consider `CCN1CCc2c(sc(Br)c2CNC(=O)Nc2sc3c(c2C(=O)OC(C)C)CCCC3)C1` [Compound 174], for which the EC50 was less than 100 nM. Same read-out and setting: the same measure for `CC(C)(C)OC(=O)c1c(NC(=O)NCc2c(-c3cnc(Sc4ccccc4)nc3)sc3c2CCNC3)sc2c1CCCC2` [Compound 323]: 100 to 1000 nM; for `CCOC(=O)c1c(NC(=O)NCc2c(-n3cccc3)sc3c2CCN(C)C3)sc(C)c1C` [Compound 71]: less than 100 nM; for `CC(C)(C)OC(=O)c1c(NC(=O)NCc2c(Br)sc3c2CCNC3)sc2c1CCOC2` [Compound 239]: less than 100 nM. Turning to `CC(C)(C)OC(=O)c1c(NC(=O)NCc2c(-n3cccc3)sc3c2CCN(C2CCC2)C3)sc2c1CCCC2` [Compound 260], the EC50 is less than 100 nM. The same measure, in the same setting: the same measure for `O=C(NCc1c(C(F)(F)F)sc2c1CCNC2)Nc1sc2c(c1C(=O)OC1CCCCC1)CCCC2` [Compound 272]: less than 100 nM; for `CC(C)(C)OC(=O)c1c(NC(=O)NCc2c(-c3ccoc3)sc3c2CCNC3)sc2c1CCCC2` [Compound 183]: less than 100 nM.
